The source of these data is patent US9809574B2, “Isoindoline or isoquinoline compounds, a process for their preparation and pharmaceutical compositions containing them” (LES LABORATOIRES SERVIER, priority 2013, dated 2017).

Structures can show the parent of a compound that is named as a salt. Some results are limits rather than exact numbers.

The target in assay [1] is Bcl-2 protein (histag-Bcl-2, UniProtKB P10415) (Homo sapiens (Human), UniProt P10415). The assay can be described thus: Inhibition of Bcl-2 by the fluorescence polarisation technique. The assay is classed as binding. The settings on record: fluorescence polarisation test; incubation for 2 hours; read-out: IC50 (nM) Bcl-2 FP. The text has this: For partial inhibitors, the percentage fluorescence polarisation inhibition for a given concentration of the test compound is indicated.
In general terms: Polarisation of emitted light reports the rotation of a fluorescent probe.

Assay [2] relates to RS4; 11 leukaemia cell line. The assay can be described thus: In vitro cytotoxicity, Microculture Tetrazolium Assay (MTT). It counts as cell-based. The settings on record: Homo sapiens, 11 cells exposed for 48 hours. The procedure: The cytotoxicity studies were carried out on the RS4; 11 leukaemia cell line and on H146 small Cell Lung Carcinoma cell line. The cells are distributed onto microplates and exposed to the test compounds for 48 hours. The cell viability is then quantified by a colorimetric assay, the Microculture Tetrazolium Assay (Cancer Res., 1987, 47, 939-942).

Chain of Bcl-2 protein (P10415 whole entry): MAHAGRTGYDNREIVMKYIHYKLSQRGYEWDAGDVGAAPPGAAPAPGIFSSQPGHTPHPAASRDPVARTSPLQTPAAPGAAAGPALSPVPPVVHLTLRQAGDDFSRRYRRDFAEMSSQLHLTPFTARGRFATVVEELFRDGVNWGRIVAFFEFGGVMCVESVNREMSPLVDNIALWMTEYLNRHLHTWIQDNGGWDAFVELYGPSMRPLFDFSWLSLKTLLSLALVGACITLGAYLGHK

Turning to `Cc1c(C(=O)N(C)c2ccccc2)cc(-c2cc3c(cc2C(=O)N2Cc4ccccc4C[C@H]2CN2CCN(C)CC2)CN(C(=O)Oc2cccc(C(=O)O)c2)CC3)n1C` [Example 735, 3-(6-{1,5-Dimethyl-4-[methyl(phenyl)carbamoyl]-1H-pyrrol-2-yl}-7-[(3S)-3-[(4-methylpiperazin-1-yl)methyl]-1,2,3,4-tetrahydroisoquinoline-2-carbonyl]-1,2,3,4-tetrahydroisoquinoline-2-carbonyloxy)benzoic acid], the IC50 in assay [1] was 12 nM; in assay [2], > 150 nM.

With `CN(C(=O)c1cc(-c2cc3c(cc2C(=O)N2Cc4ccccc4C[C@H]2CN2CCOCC2)CNCC3)n2c1CCCC2)c1ccc(O)cc1` [Example 2, N-(4-Hydroxyphenyl)-N-methyl-3-{7-[(3S)-3-(morpholin-4-ylmethyl)-1,2,3,4-tetrahydroisoquinoline-2-carbonyl]-1,2,3,4-tetrahydroisoquinolin-6-yl}-5,6,7,8-tetrahydroindolizine-1-carboxamide dihydrochloride], the IC50 in assay [1] was 397 nM; in assay [2], > 1880 nM.

`C[C@@H]1Cc2ccccc2CN1C(=O)c1cc2c(cc1-c1cc(C(=O)N(C)c3ccc(O)cc3)c3n1CCCC3)CN(CCc1ccccc1)C2` [Example 72, N-(4-Hydroxyphenyl)-N-methyl-3-{6-[(3R)-3-methyl-1,2,3,4-tetrahydroisoquinoline-2-carbonyl]-2-(2-phenylethyl)-2,3-dihydro-1H-isoindol-5-yl}-5,6,7,8-tetrahydroindolizine-1-carboxamide]: the IC50 in assay [1] is 21 nM; in assay [2] it was 229 nM.

Consider `CN(C(=O)c1cc(-c2cc3c(cc2C(=O)N2Cc4ccccc4C[C@H]2CN2CCOCC2)CN(C(=O)NC(C)(C)C)C3)n2c1CCCC2)c1ccc(O)cc1` [Example 17, N-tert-Butyl-5-{1-[(4-hydroxyphenyl)(methyl)carbamoyl]-5,6,7,8-tetrahydroindolizin-3-yl}-6-[(3S)-3-(morpholin-4-ylmethyl)-1,2,3,4-tetrahydroisoquinoline-2-carbonyl]-2,3-dihydro-1H-isoindole-2-carboxamide hydrochloride], for which the IC50 in assay [1] was 91 nM; in assay [2], 1760 nM.

As to `C[C@@H]1Cc2ccccc2CN1C(=O)c1cc2c(cc1-c1cc(C(=O)N(C)c3ccc(O)cc3)c3n1CCCC3)CCN(C(=O)Oc1ccc(CCC(=O)N(C)C)cc1)C2` [Example 155, 4-[2-(Dimethylcarbamoyl)ethyl]phenyl 6-{1-[(4-hydroxyphenyl)(methyl)carbamoyl]-5,6,7,8-tetrahydroindolizin-3-yl}-7-[(3R)-3-methyl-1,2,3,4-tetrahydroisoquinoline-2-carbonyl]-1,2,3,4-tetrahydroisoquinoline-2-carboxylate], the IC50 in assay [1] turned out to be 3.2 nM; in assay [2], 2.9 nM.

For `Cc1c(C(=O)N(C)c2ccc(O)cc2)cc(-c2cc3c(cc2C(=O)N2Cc4ccccc4C[C@H]2C)CN(C(=O)Cc2ccc(F)cc2)C3)n1C` [Example 102, 5-{2-[2-(4-Fluorophenyl)acetyl]-6-[(3R)-3-methyl-1,2,3,4-tetrahydroisoquinoline-2-carbonyl]-2,3-dihydro-1H-isoindol-5-yl}-N-(4-hydroxyphenyl)-N,1,2-trimethyl-1H-pyrrole-3-carboxamide], the IC50 in assay [1] is 5 nM; in assay [2], 75 nM.

Consider `COc1ccc(OC(=O)N2CCc3cc(-c4cc(C(=O)N(C)c5ccc(O)cc5)c5n4CCCC5)c(C(=O)N4Cc5ccccc5C[C@H]4CN4CCOCC4)cc3C2)cc1` [Example 121, 4-Methoxyphenyl 6-{1-[(4-hydroxyphenyl)(methyl)carbamoyl]-5,6,7,8-tetrahydroindolizin-3-yl}-7-[(3S)-3-(morpholin-4-ylmethyl)-1,2,3,4-tetrahydroisoquinoline-2-carbonyl]-1,2,3,4-tetrahydroisoquinoline-2-carboxylate], for which the IC50 amounted to 2.9 nM in assay [1] and 2.8 nM in assay [2].

Take `Cc1ccc(OC(=O)N2CCc3cc(-c4cc(C(=O)N(C)c5ccccc5)c(C)n4C)c(C(=O)N4Cc5ccccc5C[C@H]4CN4CCOCC4)cc3C2)cc1` [Example 591, 4-Methylphenyl 6-{1,5-dimethyl-4-[methyl(phenyl)carbamoyl]-1H-pyrrol-2-yl}-7-[(3S)-3-(morpholin-4-ylmethyl)-1,2,3,4-tetrahydroisoquinoline-2-carbonyl]-1,2,3,4-tetrahydroisoquinoline-2-carboxylate]: the figures for the IC50 in assay [1] and in assay [2] were 2.5 nM and 7 nM, respectively.

For the compound `C[C@@H]1Cc2ccccc2CN1C(=O)c1cc2c(cc1-c1cc(C(=O)N(C)c3ccc(O)cc3)c3n1CCCC3)CCN(C(=O)N1CC(c3ccccc3)C1)C2` [Example 84, N-(4-Hydroxyphenyl)-N-methyl-3-{7-[(3R)-3-methyl-1,2,3,4-tetrahydroisoquinoline-2-carbonyl]-2-(3-phenylazetidine-1-carbonyl)-1,2,3,4-tetrahydroisoquinolin-6-yl}-5,6,7,8-tetrahydroindolizine-1-carboxamide], the IC50 in assay [1] amounted to 4.9 nM; in assay [2], 33 nM.

For the compound `CN(C(=O)c1cc(-c2cc3c(cc2C(=O)N2Cc4ccccc4C[C@H]2CN2CCOCC2)CN(C(=O)CCc2ccccc2)C3)n2c1CCCC2)c1ccc(O)cc1` [Example 9, N-(4-Hydroxyphenyl)-N-methyl-3-{6-[(3S)-3-(morpholin-4-ylmethyl)-1,2,3,4-tetrahydroisoquinoline-2-carbonyl]-2-(3-phenylpropanoyl)-2,3-dihydro-1H-isoindol-5-yl}-5,6,7,8-tetrahydroindolizine-1-carboxamide hydrochloride], the IC50 in assay [1] is 9 nM; in assay [2], 125 nM.

With `C[C@@H]1Cc2ccccc2CN1C(=O)c1cc2c(cc1-c1cc(C(=O)N(C)c3ccc(O)cc3)c3n1CCCC3)CCN(C(=O)OC(C)(C)C)C2` [Example 47, tert-Butyl 6-{1-[(4-hydroxyphenyl)(methyl)carbamoyl]-5,6,7,8-tetrahydroindolizin-3-yl}-7-[(3R)-3-methyl-1,2,3,4-tetrahydroisoquinoline-2-carbonyl]-1,2,3,4-tetrahydroisoquinoline-2-carboxylate], the figures for the IC50 in assay [1] and in assay [2] were 12 nM and 45 nM, respectively.

With `CCc1ccc(OC(=O)N2CCc3cc(-c4cc(C(=O)N(C)c5ccc(O)cc5)c5n4CCCC5)c(C(=O)N4Cc5ccccc5C[C@H]4CN4CCOCC4)cc3C2)cc1` [Example 126, 4-Ethylphenyl 6-{1-[(4-hydroxyphenyl)(methyl)carbamoyl]-5,6,7,8-tetrahydroindolizin-3-yl}-7-[(3S)-3-(morpholin-4-ylmethyl)-1,2,3,4-tetrahydroisoquinoline-2-carbonyl]-1,2,3,4-tetrahydroisoquinoline-2-carboxylate], the IC50 in assay [1] was determined as 5.9 nM; in assay [2], 5.2 nM.

For `Cc1c(C(=O)N(C)c2ccc(O)cc2)cc(-c2cc3c(cc2C(=O)N2Cc4ccccc4C[C@H]2C)CN(C(=O)Nc2ccccc2)CC3)n1C` [Example 253, 6-{4-[(4-Hydroxyphenyl)(methyl)carbamoyl]-1,5-dimethyl-1H-pyrrol-2-yl}-7-[(3R)-3-methyl-1,2,3,4-tetrahydroisoquinoline-2-carbonyl]-N-phenyl-1,2,3,4-tetrahydroisoquinoline-2-carboxamide], the results for the IC50 in assay [1] and in assay [2] were 5.2 nM and 22 nM, respectively.

Turning to `C[C@@H]1Cc2ccccc2CN1C(=O)c1cc2c(cc1-c1cc(C(=O)N(C)c3ccc(O)cc3)c3n1CCCC3)CN(CCCc1ccccc1)C2` [Example 30, N-(4-Hydroxyphenyl)-N-methyl-3-{6-[(3R)-3-methyl-1,2,3,4-tetrahydroisoquinoline-2-carbonyl]-2-(3-phenylpropyl)-2,3-dihydro-1H-isoindol-5-yl}-5,6,7,8-tetrahydroindolizine-1-carboxamide], the concentration for half-maximal inhibition (IC50) was determined as 16 nM in assay [1] and 119 nM in assay [2].

Take `Cc1c(C(=O)N(C)c2ccc(O)cc2)cc(-c2cc3c(cc2C(=O)N2Cc4ccccc4C[C@H]2CN2CCOCC2)CN(C(=O)Oc2ccc4[nH]ccc4c2)CC3)n1C` [Example 577, 1H-Indol-5-yl 6-{4-[(4-hydroxyphenyl)(methyl)carbamoyl]-1,5-dimethyl-1H-pyrrol-2-yl}-7-[(3S)-3-(morpholin-4-ylmethyl)-1,2,3,4-tetrahydroisoquinoline-2-carbonyl]-1,2,3,4-tetrahydroisoquinoline-2-carboxylate]: the IC50 in assay [1] came to 5.9 nM; in assay [2] it was 4.7 nM.

In the case of `Cc1c(C(=O)N(C)c2ccc(O)cc2)cc(-c2cc3c(cc2C(=O)N2Cc4ccccc4C[C@H]2CN2CCOCC2)CN(C(=O)O[C@@H]2C[C@H](C)CC[C@H]2C(C)C)CC3)n1C` [Example 797, (1R,2S,5R)-5-Methyl-2-(propan-2-yl)cyclohexyl 6-{4-[(4-hydroxyphenyl)(methyl)carbamoyl]-1,5-dimethyl-1H-pyrrol-2-yl}-7-[(3S)-3-(morpholin-4-ylmethyl)-1,2,3,4-tetrahydroisoquinoline-2-carbonyl]-1,2,3,4-tetrahydroisoquinoline-2-carboxylate], the IC50 in assay [1] worked out at 21 nM; in assay [2], 125 nM.

Turning to `C[C@@H]1Cc2ccccc2CN1C(=O)c1cc2c(cc1-c1cc(C(=O)N(C)c3ccc(O)cc3)c3n1CCCC3)CN(C(=O)C1CC1)C2` [Example 20, 3-{2-Cyclopropanecarbonyl-6-[(3R)-3-methyl-1,2,3,4-tetrahydroisoquinoline-2-carbonyl]-2,3-dihydro-1H-isoindol-5-yl}-N-(4-hydroxyphenyl)-N-methyl-5,6,7,8-tetrahydroindolizine-1-carboxamide], the IC50 in assay [1] is 20 nM; in assay [2] it was > 150 nM.

In general, IC50 refers to the midpoint of a concentration-inhibition curve.
